Results: patent US20230265151A1, “GIP/GLP1 CO-AGONIST COMPOUNDS” (priority 2020, published 2023)
Read-outs that look alike come from different tables or passages of the source. *1 amine or outer side, *2 acyl side, *3 side chain or, on linkers, in order; H or OH if unused. Where a SMILES comes first, the peptide text is derived from it. Side-chain parts run from the residue outwards. [ ]: non-standard residue; d: D form. The star is where a group is joined. Decanoyl(10-(4-HOOC-PhO)) = O=C(O)c1ccc(OCCCCCCCCCC(=O)*)cc1; αMePhe(2-F) = C[C@](N)(Cc1ccccc1F)C(=O)O; γGlu = O=C(O)[C@H](CCC(=O)[*:2])N[*:1]; αMeY = C[C@](N)(Cc1ccc(O)cc1)C(=O)O; αMeL = CC(C)C[C@](C)(N)C(=O)O; Orn = NCCC[C@H](N)C(=O)O; AEEA = NCCOCCOCC(=O)O; Aib = CC(C)(N)C(=O)O

Experiments:
Format in all cases: cell-based
hGIPR = target: T1, hGIPR (Homo sapiens, UniProt P48546); assay: Functional cAMP formation (HTRF) in HEK-293 clonal cells expressing hGIPR, 0.1% bovine casein, without or with 1.0% human serum albumin; details: for Emax: percent of maximal response to GIP(1-42)NH2; for EC50: hGIPR EC50, nM (SEM, n), cAMP, 37° C., 0.1% bovine casein (no human serum albumin), geometric mean
T1 construct: expressed in transfected cells
T1 sequence (P48546 22-466): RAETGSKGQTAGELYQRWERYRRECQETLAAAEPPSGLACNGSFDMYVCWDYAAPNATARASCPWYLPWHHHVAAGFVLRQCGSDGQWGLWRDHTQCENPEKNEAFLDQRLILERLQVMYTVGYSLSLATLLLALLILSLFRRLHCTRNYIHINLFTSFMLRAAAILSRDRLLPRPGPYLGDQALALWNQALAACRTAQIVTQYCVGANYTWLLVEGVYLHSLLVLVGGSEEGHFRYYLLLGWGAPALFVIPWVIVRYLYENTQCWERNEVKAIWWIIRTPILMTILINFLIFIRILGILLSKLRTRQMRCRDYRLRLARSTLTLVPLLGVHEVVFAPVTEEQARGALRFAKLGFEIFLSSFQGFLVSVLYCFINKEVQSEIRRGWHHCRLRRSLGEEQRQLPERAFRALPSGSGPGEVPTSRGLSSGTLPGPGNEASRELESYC
In short: (§1)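 Cells were stimulated with peptide for 30 min at 37° C, then lysed in buffer carrying cAMP-d2 and anti-cAMP Eu3+-cryptate for a competitive HTRF read after at least 60 min at room temperature. The 665/620 nm ratio was converted to nM cAMP against a standard curve.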

hGCGR = target: T2, hGCGR (Homo sapiens, UniProt P47871); assay: Functional cAMP formation (HTRF) in HEK-293 clonal cells expressing hGCGR, 0.1% bovine casein, without or with 1.0% human serum albumin; details: hGCGR EC50, nM (SEM, n), cAMP, 37° C.
T2 construct: expressed in transfected cells
In short: as §1

hGLP-1R = hGLP-1R (Homo sapiens, UniProt P43220); assay: Functional cAMP formation (HTRF) in HEK-293 clonal cells expressing hGLP-1R, 0.1% bovine casein, without or with 1.0% human serum albumin; set-up: expressed in transfected cells; details: for Emax: percent of maximal response to GLP-1(7-36)NH2; for EC50: hGLP-1R EC50, nM (SEM, n), cAMP, 37° C.
In short: as §1

[1] = HEK293, read-out: hGIPR Emax, % ± SEM, cAMP, 37° C., 0.1% bovine casein and 1.0% human serum albumin
[2] = HEK293, read-out: hGIPR Emax, % ± SEM, cAMP, 37° C., 0.1% bovine casein, arithmetic mean
[3] = 0.1% bovine casein (no human serum albumin), geometric mean
[4] = 0.1% bovine casein and 1.0% human serum albumin, geometric mean (SEM, n)
[5] = HEK293, read-out: hGLP-1R Emax, % ± SEM, cAMP, 37° C., 0.1% bovine casein and 1.0% human serum albumin
[6] = HEK293, read-out: hGLP-1R Emax, % ± SEM, cAMP, 37° C., 0.1% bovine casein, arithmetic mean

Sequence of hGLP-1R (P43220 24-463): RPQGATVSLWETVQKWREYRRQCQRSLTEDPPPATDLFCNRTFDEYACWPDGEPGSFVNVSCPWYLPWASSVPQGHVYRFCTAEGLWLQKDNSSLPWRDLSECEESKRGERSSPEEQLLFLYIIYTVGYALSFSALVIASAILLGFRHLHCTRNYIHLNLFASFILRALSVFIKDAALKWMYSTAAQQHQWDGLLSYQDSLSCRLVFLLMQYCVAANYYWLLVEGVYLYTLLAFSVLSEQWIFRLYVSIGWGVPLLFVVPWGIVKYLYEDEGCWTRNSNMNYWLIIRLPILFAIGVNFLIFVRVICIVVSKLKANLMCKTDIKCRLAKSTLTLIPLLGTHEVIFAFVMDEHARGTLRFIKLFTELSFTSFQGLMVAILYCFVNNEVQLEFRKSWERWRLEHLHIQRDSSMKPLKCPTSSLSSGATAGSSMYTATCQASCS
T2 sequence (P47871 26-477): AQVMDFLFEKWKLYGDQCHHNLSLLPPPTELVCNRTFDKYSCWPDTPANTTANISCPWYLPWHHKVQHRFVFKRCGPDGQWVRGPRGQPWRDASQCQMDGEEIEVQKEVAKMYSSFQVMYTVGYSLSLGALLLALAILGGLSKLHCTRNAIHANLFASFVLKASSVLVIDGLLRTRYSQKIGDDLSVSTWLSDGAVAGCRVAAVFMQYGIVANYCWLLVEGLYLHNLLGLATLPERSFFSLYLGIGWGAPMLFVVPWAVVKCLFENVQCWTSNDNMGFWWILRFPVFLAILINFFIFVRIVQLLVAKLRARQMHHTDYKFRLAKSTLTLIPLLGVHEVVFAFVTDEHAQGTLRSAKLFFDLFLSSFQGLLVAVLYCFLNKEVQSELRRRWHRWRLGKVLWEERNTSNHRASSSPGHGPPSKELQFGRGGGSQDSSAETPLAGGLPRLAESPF

| SMILES | Emax (hGIPR; [1]) [%] | Emax (hGIPR; [2]) [%] | EC50 (hGIPR) [nM] | EC50 (hGCGR; [3]) [nM] | EC50 (hGCGR; [4]) [nM] | Emax (hGLP-1R; [5]) [%] | Emax (hGLP-1R; [6]) [%] | EC50 (hGLP-1R; [3]) [nM] | EC50 (hGLP-1R; [4]) [nM] |
| --- | --- | --- | --- | --- | --- | --- | --- | --- | --- |
| CC[C@H](C)[C@H](NC(=O)[C@H](CC(C)C)NC(=O)[C@](C)(Cc1ccc(O)cc1)NC(=O)[C@@H](CCC(=O)O)NC(=O)[C@@H](NC(=O)[C@H](Cc1ccccc1)NC(=O)[C@H](CCC(=O)O)NC(=O)C(C)(C)NC(=O)[C@H](CCC(N)=O)NC(=O)[C@H](C)NC(=O)[C@H](CCCCNC(=O)COCCOCCNC(=O)COCCOCCNC(=O)CC[C@H](NC(=O)CCCCCCCCCOc1ccc(C(=O)O)cc1)C(=O)O)NC(=O)[C@H](CCCN)NC(=O)[C@H](CC(=O)O)NC(=O)[C@H](CC(C)C)NC(=O)[C@](C)(CC(C)C)NC(=O)[C@@H](NC(=O)C(C)(C)NC(=O)[C@@H](NC(=O)[C@H](CC(=O)O)NC(=O)[C@H](CO)NC(=O)[C@@H](NC(=O)[C@](C)(Cc1ccccc1F)NC(=O)[C@@H](NC(=O)CNC(=O)[C@H](CCC(=O)O)NC(=O)C(C)(C)NC(=O)[C@@H](N)Cc1ccc(O)cc1)[C@@H](C)O)[C@@H](C)O)C(C)C)[C@@H](C)CC)[C@@H](C)CC)C(=O)N[C@@H](CCC(=O)O)C(=O)NCC(=O)NCC(=O)N1CCC[C@H]1C(=O)N[C@@H](CO)C(=O)N[C@@H](CO)C(=O)NCC(=O)N[C@@H](C)C(=O)N1CCC[C@H]1C(=O)N1CCC[C@H]1C(=O)N1CCC[C@H]1C(=O)N[C@@H](CO)C(=O)N[C@@H](CCCCNC(=O)COCCOCCNC(=O)COCCOCCNC(=O)CC[C@H](NC(=O)CCCCCCCCCOc1ccc(C(=O)O)cc1)C(=O)O)C(N)=O [Example 380] (H-Y[Aib]EGT[αMePhe(2-F)]TSDV[Aib]I[αMeL]LD[Orn]K([AEEA-AEEA-γGlu-Decanoyl(10-(4-HOOC-PhO))])AQ[Aib]EFI[dE][αMeY]LIEGGPSSGAPPPSK([AEEA-AEEA-γGlu-Decanoyl(10-(4-HOOC-PhO))])-NH2) | 93.5 | 100 | 0.0209 | > 9950 | > 9950 | 94.5 | 96.2 | 0.176 | 28 |
| CC[C@H](C)[C@H](NC(=O)[C@H](CCCN)NC(=O)[C@H](CC(=O)O)NC(=O)[C@H](CC(C)C)NC(=O)[C@](C)(CC(C)C)NC(=O)[C@@H](NC(=O)C(C)(C)NC(=O)[C@@H](NC(=O)[C@H](CC(=O)O)NC(=O)[C@H](CO)NC(=O)[C@@H](NC(=O)[C@](C)(Cc1ccccc1F)NC(=O)[C@@H](NC(=O)CNC(=O)[C@H](CCC(=O)O)NC(=O)C(C)(C)NC(=O)[C@@H](N)Cc1ccc(O)cc1)[C@@H](C)O)[C@@H](C)O)C(C)C)[C@@H](C)CC)C(=O)N[C@@H](C)C(=O)N[C@@H](CCC(N)=O)C(=O)NC(C)(C)C(=O)N[C@@H](CCC(=O)O)C(=O)N[C@@H](Cc1ccccc1)C(=O)N[C@H](C(=O)N[C@@H](CCCCNC(=O)COCCOCCNC(=O)CC[C@H](NC(=O)CCCCCCCCCOc1ccc(C(=O)O)cc1)C(=O)O)C(=O)N[C@@](C)(Cc1ccc(O)cc1)C(=O)N[C@@H](CC(C)C)C(=O)N[C@H](C(=O)N[C@@H](CCCCNC(=O)COCCOCCNC(=O)CC[C@H](NC(=O)CCCCCCCCCOc1ccc(C(=O)O)cc1)C(=O)O)C(=O)NCC(=O)NCC(=O)N1CCC[C@H]1C(=O)N[C@@H](CO)C(=O)N[C@@H](CO)C(=O)NCC(=O)N[C@@H](C)C(=O)N1CCC[C@H]1C(=O)N1CCC[C@H]1C(=O)N1CCC[C@H]1C(=O)N[C@@H](CO)C(N)=O)[C@@H](C)CC)[C@@H](C)CC [Example 381] | 90.3 | – | 0.0784 | > 9950 | > 9950 | – | 105 | 1.1 | – |
| CC[C@H](C)[C@H](NC(=O)[C@H](CCCN)NC(=O)[C@H](CC(=O)O)NC(=O)[C@H](CC(C)C)NC(=O)[C@](C)(CC(C)C)NC(=O)[C@@H](NC(=O)C(C)(C)NC(=O)[C@@H](NC(=O)[C@H](CC(=O)O)NC(=O)[C@H](CO)NC(=O)[C@@H](NC(=O)[C@](C)(Cc1ccccc1F)NC(=O)[C@@H](NC(=O)CNC(=O)[C@H](CCC(=O)O)NC(=O)C(C)(C)NC(=O)[C@@H](N)Cc1ccc(O)cc1)[C@@H](C)O)[C@@H](C)O)C(C)C)[C@@H](C)CC)C(=O)N[C@@H](C)C(=O)N[C@@H](CCC(N)=O)C(=O)NC(C)(C)C(=O)N[C@@H](CCCCNC(=O)COCCOCCNC(=O)CC[C@H](NC(=O)CCCCCCCCCOc1ccc(C(=O)O)cc1)C(=O)O)C(=O)N[C@@H](Cc1ccccc1)C(=O)N[C@H](C(=O)N[C@H](CCC(=O)O)C(=O)N[C@@](C)(Cc1ccc(O)cc1)C(=O)N[C@@H](CC(C)C)C(=O)N[C@H](C(=O)N[C@@H](CCCCNC(=O)COCCOCCNC(=O)CC[C@H](NC(=O)CCCCCCCCCOc1ccc(C(=O)O)cc1)C(=O)O)C(=O)NCC(=O)NCC(=O)N1CCC[C@H]1C(=O)N[C@@H](CO)C(=O)N[C@@H](CO)C(=O)NCC(=O)N[C@@H](C)C(=O)N1CCC[C@H]1C(=O)N1CCC[C@H]1C(=O)N1CCC[C@H]1C(=O)N[C@@H](CO)C(N)=O)[C@@H](C)CC)[C@@H](C)CC [Example 382] | 87.2 | 97.6 | 0.0302 | > 9950 | > 9950 | 118 | – | 0.619 | – |
| CC[C@H](C)[C@H](NC(=O)[C@H](CCCN)NC(=O)[C@H](CC(=O)O)NC(=O)[C@H](CC(C)C)NC(=O)[C@](C)(CC(C)C)NC(=O)[C@@H](NC(=O)C(C)(C)NC(=O)[C@@H](NC(=O)[C@H](CC(=O)O)NC(=O)[C@H](CO)NC(=O)[C@@H](NC(=O)[C@](C)(Cc1ccccc1F)NC(=O)[C@@H](NC(=O)CNC(=O)[C@H](CCC(=O)O)NC(=O)C(C)(C)NC(=O)[C@@H](N)Cc1ccc(O)cc1)[C@@H](C)O)[C@@H](C)O)C(C)C)[C@@H](C)CC)C(=O)N[C@@H](C)C(=O)N[C@@H](CCC(N)=O)C(=O)NC(C)(C)C(=O)N[C@@H](CCCCNC(=O)COCCOCCNC(=O)COCCOCCNC(=O)CC[C@H](NC(=O)CCCCCCCCCOc1ccc(C(=O)O)cc1)C(=O)O)C(=O)N[C@@H](Cc1ccccc1)C(=O)N[C@H](C(=O)N[C@H](CCC(=O)O)C(=O)N[C@@](C)(Cc1ccc(O)cc1)C(=O)N[C@@H](CC(C)C)C(=O)N[C@H](C(=O)N[C@@H](CCC(=O)O)C(=O)NCC(=O)NCC(=O)N1CCC[C@H]1C(=O)N[C@@H](CO)C(=O)N[C@@H](CO)C(=O)NCC(=O)N[C@@H](C)C(=O)N1CCC[C@H]1C(=O)N1CCC[C@H]1C(=O)N1CCC[C@H]1C(=O)N[C@@H](CO)C(=O)N[C@@H](CCCCNC(=O)COCCOCCNC(=O)COCCOCCNC(=O)CC[C@H](NC(=O)CCCCCCCCCOc1ccc(C(=O)O)cc1)C(=O)O)C(N)=O)[C@@H](C)CC)[C@@H](C)CC [Example 383] (H-Y[Aib]EGT[αMePhe(2-F)]TSDV[Aib]I[αMeL]LD[Orn]IAQ[Aib]K([AEEA-AEEA-γGlu-Decanoyl(10-(4-HOOC-PhO))])FI[dE][αMeY]LIEGGPSSGAPPPSK([AEEA-AEEA-γGlu-Decanoyl(10-(4-HOOC-PhO))])-NH2) | 82.8 | 100 | 0.0147 | > 9950 | > 9950 | – | 105 | 0.306 | – |
